{"source": "patent US20230356105A1", "about": "“TETRAAZADODECANE BASED CHELATING AGENTS FOR SEPARATION OF RARE EARTH ELEMENTS AND METHOD THEREFOR” (Ustav Organicke Chemie a Biochemie AV CR V.V.I., priority 2020, published 2023)", "type_in_all_cases": "physicochemical", "key": {"[1]": {"assay": "Use of additives to improve separation of Nd/Dy mixture by precipitation with L5 (Example 18)", "details": "no additive (0 mM); 11 mM L5", "method_in_brief": "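Mixtures held 5 mM NdCl3, 5 mM DyCl3 and 500 mM MOPS pH 7 with L5, plus additives at variable concentration adjusted to pH 7. Stirred 18 h in sealed cuvettes, then centrifuged; precipitate redissolved in 1 M HCl. Nd and Dy measured in supernatant and precipitate by ICP-OES.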"}, "[2]": {"assay": "Separation of Tb/Dy mixture by repeated precipitation using L5 and α-HIBA (Example 20)", "details": "for Precipitate concentration [mM] Dy / precipitate concentration [mm] Tb: dissolved to 200 μL", "procedure": "Analogous to Example 19, three reaction mixtures were prepared with the following changes: the rare-earth elements were Tb and Dy, and 0.5 molar equivalents (5 mM reaction concentration) of α-HIBA were used. Otherwise, the experiment was run analogously to Example 19.\nThe resulting absolute concentrations of both metals in the supernatants and precipitates, as well as calculated values of the separation factor Dy/Tb according to the formula from Example 11), are summarized in Table 14. […] The average separation factor was 2.32."}, "[3]": {"assay": "Separation of Ho/Er mixture by repeated precipitation using L1 (Example 11)", "details": "for Precipitate concentration [mM] Ho: dissolved to 200 μL", "procedure": "Stock solutions were pipetted into round-bottom 2 mL Eppendorf tubes as follows: • 1. 10 μL 100 mM aqueous solution of HoCl3 • 2. 10 μL 100 mM aqueous solution of ErCl3 • 3. 20 μL 100 mM aqueous solution of compound L1. • 4. 60 μL 2 M MOPS buffer pH=7. • 5. 140 μL water.\nNine identical reaction mixtures were prepared and split into three groups: A, B, C. Each tube was equipped with one PTFE-coated magnetic stir bar and sealed, and the mixture was stirred on a magnetic stirrer for 24 hours at room temperature. The tubes were then centrifuged and the supernatants were carefully pipetted out and transferred to a new set of tubes. Precipitates from group A were dissolved by addition of 200 μL 0.1 M HCl. The concentrations of Ho and Er in the supernatants and in the re-dissolved precipitates from group A were determined by ICP-OES. Precipitates from groups B and C were further processed as follows: the precipitates were dissolved by addition of 100 μL 0.1 M HCl, and the pH of the solutions were then raised from 1 to 7 by addition of an equimolar amount of 0.2 M NaOH. The total volume was adjusted to 200 μL by addition of water. The prepared mixtures were subjected to a second round of precipitation and were stirred on a magnetic stirrer for 24 hours at room temperature. The tubes were again centrifuged and the supernatants were carefully pipetted out and transferred to a new set of tubes. Samples from group B were treated identically to the samples from group A previously, and the Ho and Er content in the supernatants and precipitates were determined by ICP-OES. Precipitates from group C were subjected to a third cycle of precipitation followed by Ho and Er content determination analogously to the procedures described above. The resulting absolute concentrations of both metals in the supernatants and precipitates, as well as calculated values of the separation factor Er/Ho according to the formula (concentration of Er in supernatant/concentration of Er in precipitate)/(concentration of Ho in supernatant/concentration of Ho in precipitate), are summarized in Table 5."}, "[4]": {"assay": "Separation of Gd/Lu mixture by repeated precipitation using L1 (Example 13)", "details": "for Precipitate concentration [mM] Gd / Precipitate concentration [mM] Lu: dissolved to 200 μL", "procedure": "Stock solutions were pipetted into round-bottom 2 mL Eppendorf tubes as follows: • 1. 10 μL 100 mM aqueous solution of GdCl3 • 2. 10 μL 100 mM aqueous solution of LuCl3 • 3. 20 μL 100 mM aqueous solution of compound • 4. 33.3 μL 3 M MOPS buffer pH=7. • 5. 127.6 μL water.\nNine identical reaction mixtures were prepared and split into three groups A, B, C. Each tube was equipped with one PTFE-coated magnetic stir bar and sealed, and the mixture was stirred on a magnetic stirrer for 24 hours at room temperature. The tubes were then centrifuged and the supernatants were carefully pipetted out and transferred to a new set of tubes. Precipitates from group A were dissolved by addition of 100 μL 1 M HCl at room temperature over the course of 30 mins and then diluted to 200 μL by the addition of 100 μL water. Concentrations of Gd and Lu in the supernatants and in re-dissolved precipitates from group A were determined by ICP-OES. Precipitates from groups B and C were further processed as follows: the precipitates were dissolved by addition of 100 μL 1 M HCl at room temperature at pH 0 over the course of 30 mins, and the pH was then adjusted to approximately 7 by the addition of 50 μL 2 M NaOH, and the overall volume adjusted to 200 μL by the addition of water. The prepared mixtures were subjected to a second round of precipitation and were stirred on a magnetic stirrer for 24 hours at room temperature. Then, the tubes were again centrifuged and supernatants were carefully pipetted out and transferred to a new set of tubes. Samples from group B were treated identically to the samples from group A previously, and the Gd and Lu content in the supernatants and precipitates was determined by ICP-OES. Precipitates from group C were subjected to a third cycle of precipitation and followed by Gd and Lu content determination analogously to the procedures described above."}, "[5]": {"details": "group A, 1st precipitation, mean"}}, "note": "Values joined by “and” are separate entries in the source; they are usually repeats but may differ in a detail not shown here. Equal values may be shown once. Marks after values point to notes of the source that are not given here.", "data": [{"smiles": "O=C(O)CN1CCN(CC(=O)O)CCN(Cc2cccc3ccccc23)CCN(CC(=O)O)CC1", "note": "[L5, 2,2′,2″-(10-(naphthalene-1-ylmethyl)-1,4,7,10-tetraazacyklododekane-1,4,7-triyl)triacetic acid]", "values": [{"measurement": "Precipitate concentration [mM] Dy", "setting": "[1]", "value": 4.60, "unit": "mM"}, {"measurement": "Precipitate concentration [mM] Nd", "setting": "[1]", "value": 4.98, "unit": "mM"}, {"measurement": "Supernatant concentration [mM] Dy", "setting": "[1]", "value": 0.37, "unit": "mM"}, {"measurement": "Supernatant concentration [mM] Nd", "setting": "[1]", "value": 0.07, "unit": "mM"}, {"measurement": "Supernatant concentration [mM] Dy", "setting": "[2]; A, 1st precipitation", "value": "1.41 mM and 1.47 mM and 1.59 mM"}, {"measurement": "Supernatant concentration [mM] Tb", "setting": "[2]; A, 1st precipitation, 5 mM α-HIBA", "value": "0.77 mM and 0.86 mM"}, {"measurement": "Supernatant concentration [mM] Tb", "setting": "[2]; A, 1st precipitation, 5 mM α-HIBA, mean", "value": 0.82, "unit": "mM"}, {"measurement": "Precipitate concentration [mM] Dy", "setting": "[2]; A, 1st precipitation", "value": "3.02 mM and 2.88 mM and 2.92 mM"}, {"measurement": "Precipitate concentration [mM] Dy", "setting": "[2]; A, 1st precipitation, mean", "value": 2.94, "unit": "mM"}, {"measurement": "precipitate concentration [mm] Tb", "setting": "[2]; A, 1st precipitation, mean", "value": 3.74, "unit": "mM"}, {"measurement": "Supernatant concentration [mM] Dy", "setting": "[2]; A, 1st precipitation, mean", "value": 1.49, "unit": "mM"}, {"measurement": "Supernatant concentration [mM] Dy", "setting": "[2]; B, 2nd precipitation", "value": "1.27 mM and 1.30 mM and 1.26 mM"}, {"measurement": "Supernatant concentration [mM] Tb", "setting": "[2]; B, 2nd precipitation", "value": "0.84 mM and 0.90 mM and 0.79 mM"}, {"measurement": "Precipitate concentration [mM] Dy", "setting": "[2]; B, 2nd precipitation", "value": "2.65 mM and 2.72 mM and 2.76 mM"}, {"measurement": "Precipitate concentration [mM] Dy", "setting": "[2]; B, 2nd precipitation, mean", "value": 2.71, "unit": "mM"}, {"measurement": "precipitate concentration [mm] Tb", "setting": "[2]; B, 2nd precipitation, mean", "value": 4.16, "unit": "mM"}, {"measurement": "Supernatant concentration [mM] Dy", "setting": "[2]; C, 3rd precipitation", "value": "1.10 mM and 1.20 mM and 1.08 mM"}, {"measurement": "Supernatant concentration [mM] Tb", "setting": "[2]; C, 3rd precipitation", "value": "0.90 mM and 0.98 mM and 0.83 mM"}, {"measurement": "Precipitate concentration [mM] Dy", "setting": "[2]; C, 3rd precipitation", "value": "2.52 mM and 2.42 mM and 2.72 mM"}, {"measurement": "Precipitate concentration [mM] Dy", "setting": "[2]; C, 3rd precipitation, mean", "value": 2.55, "unit": "mM"}, {"measurement": "precipitate concentration [mm] Tb", "setting": "[2]; C, 3rd precipitation, mean", "value": 4.70, "unit": "mM"}, {"measurement": "Supernatant concentration [mM] Dy", "setting": "[2]; C, 3rd precipitation, mean", "value": 1.13, "unit": "mM"}]}, {"smiles": "O=C(O)CN1CCN(CC(=O)O)CCN(Cc2ccccc2)CCN(CC(=O)O)CC1", "note": "[L1, 2,2′,2″-(10-benzyl-1,4,7,10-tetraazacyclododecane-1,4,7-triyl)triacetic Acid]", "values": [{"measurement": "average of the separation factor values Er/Ho", "setting": "[3]; all Er/Ho mixtures", "value": 2.73}, {"measurement": "Separation factor Er/Ho", "setting": "[3]; group A, 1st precipitation", "value": "2.30 and 2.59 and 2.55"}, {"measurement": "Supernatant concentration [mM] Ho", "setting": "[3]; group A, 1st precipitation", "value": "0.44 mM and 0.40 mM and 0.46 mM"}, {"measurement": "Precipitate concentration [mM] Ho", "setting": "[3]; group A, 1st precipitation", "value": "4.72 mM and 4.31 mM and 4.29 mM"}, {"measurement": "Precipitate concentration [mM] Ho", "setting": "[3]; [5]", "value": 4.44, "unit": "mM"}, {"measurement": "Supernatant concentration [mM] Ho", "setting": "[3]; [5]", "value": 0.43, "unit": "mM"}, {"measurement": "Separation factor Er/Ho", "setting": "[3]; group B, 2nd precipitation", "value": "3.10 and 2.68 and 3.02"}, {"measurement": "Supernatant concentration [mM] Ho", "setting": "[3]; group B, 2nd precipitation", "value": "0.58 mM and 0.51 mM and 0.44 mM"}, {"measurement": "Precipitate concentration [mM] Ho", "setting": "[3]; group B, 2nd precipitation", "value": "4.07 mM and 4.24 mM and 4.20 mM"}, {"measurement": "Precipitate concentration [mM] Ho", "setting": "[3]; group B, 2nd precipitation, mean", "value": 4.17, "unit": "mM"}, {"measurement": "Separation factor Er/Ho", "setting": "[3]; group C, 3rd precipitation", "value": "2.97 and 2.30 and 3.06"}, {"measurement": "Precipitate concentration [mM] Ho", "setting": "[3]; group C, 3rd precipitation", "value": "3.23 mM and 2.65 mM"}, {"measurement": "Precipitate concentration [mM] Ho", "setting": "[3]; group C, 3rd precipitation, mean", "value": 3.04, "unit": "mM"}, {"measurement": "Supernatant concentration [mM] Lu", "setting": "[4]; group A, 1st precipitation", "value": "4.28 mM and 4.35 mM and 4.12 mM and 4.36 mM"}, {"measurement": "Precipitate concentration [mM] Gd", "setting": "[4]; group A, 1st precipitation", "value": "4.24 mM and 4.38 mM and 4.22 mM and 4.12 mM"}, {"measurement": "Precipitate concentration [mM] Lu", "setting": "[4]; group A, 1st precipitation", "value": "0.99 mM and 1.08 mM and 0.98 mM and 0.90 mM"}, {"measurement": "Supernatant concentration [mM] Lu", "setting": "[4]; group B, 2nd precipitation", "value": "0.80 mM and 0.83 mM and 0.77 mM"}, {"measurement": "Precipitate concentration [mM] Gd", "setting": "[4]; group B, 2nd precipitation", "value": "3.33 mM and 3.40 mM and 3.70 mM and 3.48 mM"}, {"measurement": "Precipitate concentration [mM] Lu", "setting": "[4]; group B, 2nd precipitation", "value": "0.23 mM and 0.21 mM and 0.22 mM (2×)"}, {"measurement": "Supernatant concentration [mM] Lu", "setting": "[4]; group C, 3rd precipitation", "value": "0.24** mM and 0.17 mM and 0.16 mM and 0.19 mM"}, {"measurement": "Precipitate concentration [mM] Lu", "setting": "[4]; group C, 3rd precipitation", "value": "0.05** mM and 0.07 mM and 0.06 mM"}]}]}
